Experimental data from ChEMBL document CHEMBL3856221, “Structural modifications of the serotonin 5-HT7 receptor agonist N-(4-cyanophenylmethyl)-4-(2-biphenyl)-1-piperazinehexanamide (LP-211) to improve in vitro microsomal stability: A case study” (Eur J Med Chem, 2016).

What was measured:
[1] = Retention factor, logKw of compound in MeOH/0.01 M phosphate buffer at pH 7.4 by RP-HPLC method; assay type: physicochemical
[2] = Stability in mouse liver microsomes assessed as oxidative metabolism by measuring drug recovery at 10 uM preincubated for 10 mins followed by NADPH addition measured after 30 mins by liquid chromatographic method; assay type: ADME; settings: liver microsomes, read-out: Drug recovery
D(2) dopamine receptor = D(2) dopamine receptor (Homo sapiens, UniProt P14416); assay: Displacement of [3H]raclopride from human dopamine D2L receptor expressed in HEK293 cell membranes after 1 hr by microbeta counting analysis; assay type: cell-based
[3] = target: 5-hydroxytryptamine receptor 6 (Homo sapiens, UniProt P50406); assay: Displacement of [3H]-LSD from human 5-HT6 receptor expressed in HEK293 cell membranes after 1 hr by microbeta counting analysis
[4] = target: 5-hydroxytryptamine receptor 7 (Homo sapiens, UniProt P34969); assay: Displacement of [3H]-5-CT from human 5-HT7b receptor expressed in HEK293 cell membranes after 1 hr by microbeta counting analysis
[5] = target: T1, 5-hydroxytryptamine receptor 1A (Homo sapiens, UniProt P08908); assay: Displacement of [3H]-8-OH-DPAT from human 5-HT1A receptor expressed in HEK293 cell membranes after 1 hr by microbeta counting analysis
T1 sequence (P08908 whole entry): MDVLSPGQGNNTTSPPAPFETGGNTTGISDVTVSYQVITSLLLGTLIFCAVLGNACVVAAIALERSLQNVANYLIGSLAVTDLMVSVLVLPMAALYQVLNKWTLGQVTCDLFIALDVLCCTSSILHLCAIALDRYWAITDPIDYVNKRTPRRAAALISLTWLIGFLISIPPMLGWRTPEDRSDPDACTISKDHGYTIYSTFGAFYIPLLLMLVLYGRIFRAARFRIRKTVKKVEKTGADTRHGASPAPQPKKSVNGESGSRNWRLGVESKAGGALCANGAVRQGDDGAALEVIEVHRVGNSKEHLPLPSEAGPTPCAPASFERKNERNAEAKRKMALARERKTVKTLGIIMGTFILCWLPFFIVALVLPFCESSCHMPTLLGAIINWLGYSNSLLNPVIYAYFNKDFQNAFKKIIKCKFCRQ

[6] = Displacement of [3H]-prazosin from adrenergic alpha 1 receptor in pig brain cortical membranes after 50 mins by microbeta counting analysis; assay type: ADME, cell membranes, Sus scrofa

Sequence of 5-hydroxytryptamine receptor 7 (P34969 whole entry): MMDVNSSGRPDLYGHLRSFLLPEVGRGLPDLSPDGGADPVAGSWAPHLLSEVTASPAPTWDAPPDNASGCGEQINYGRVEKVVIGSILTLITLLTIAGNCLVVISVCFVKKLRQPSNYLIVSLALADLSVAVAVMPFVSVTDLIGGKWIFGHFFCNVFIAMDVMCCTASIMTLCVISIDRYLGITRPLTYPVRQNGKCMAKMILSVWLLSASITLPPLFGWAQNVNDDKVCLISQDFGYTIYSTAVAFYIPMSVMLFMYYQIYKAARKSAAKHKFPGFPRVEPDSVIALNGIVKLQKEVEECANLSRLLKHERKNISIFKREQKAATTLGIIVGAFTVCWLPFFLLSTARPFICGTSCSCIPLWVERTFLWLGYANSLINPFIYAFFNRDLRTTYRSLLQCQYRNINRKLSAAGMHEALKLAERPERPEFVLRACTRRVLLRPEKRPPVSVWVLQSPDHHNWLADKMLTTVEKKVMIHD
Sequence of 5-hydroxytryptamine receptor 6 (P50406 whole entry): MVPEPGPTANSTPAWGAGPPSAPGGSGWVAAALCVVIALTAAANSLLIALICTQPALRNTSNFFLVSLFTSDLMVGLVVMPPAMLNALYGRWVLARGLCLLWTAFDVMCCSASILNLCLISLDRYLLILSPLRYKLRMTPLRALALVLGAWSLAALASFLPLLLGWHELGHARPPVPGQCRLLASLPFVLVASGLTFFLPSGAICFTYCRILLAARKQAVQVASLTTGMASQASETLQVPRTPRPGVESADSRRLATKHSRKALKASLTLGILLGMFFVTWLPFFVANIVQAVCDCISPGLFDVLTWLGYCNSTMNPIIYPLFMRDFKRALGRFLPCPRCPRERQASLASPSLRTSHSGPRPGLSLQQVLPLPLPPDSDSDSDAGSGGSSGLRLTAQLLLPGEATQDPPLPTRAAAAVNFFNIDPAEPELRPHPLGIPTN
Sequence of D(2) dopamine receptor (P14416 whole entry): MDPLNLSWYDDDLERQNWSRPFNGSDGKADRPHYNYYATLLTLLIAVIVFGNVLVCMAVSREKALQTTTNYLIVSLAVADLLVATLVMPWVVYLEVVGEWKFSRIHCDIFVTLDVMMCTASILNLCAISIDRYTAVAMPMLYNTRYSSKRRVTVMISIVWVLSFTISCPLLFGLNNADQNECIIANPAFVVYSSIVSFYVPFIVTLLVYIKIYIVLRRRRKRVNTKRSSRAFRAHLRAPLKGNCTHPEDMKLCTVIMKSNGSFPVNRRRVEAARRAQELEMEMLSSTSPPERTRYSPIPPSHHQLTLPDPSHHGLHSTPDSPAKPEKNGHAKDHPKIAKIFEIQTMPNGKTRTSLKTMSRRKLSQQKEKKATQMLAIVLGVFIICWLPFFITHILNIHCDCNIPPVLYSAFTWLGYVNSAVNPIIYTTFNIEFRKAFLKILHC

## COc1ccc(-c2ccccc2N2CCN(CCOCCC(=O)NCc3cccnc3)CC2)cc1
[1]
  logKw: 0.23
[2]
  remaining at 0.5 h, 10 µM: 23%

## O=C(CCOCCN1CCN(c2ccccc2-c2ccccc2)CC1)NCc1ccncc1
D(2) dopamine receptor
  Ki: 2450 nM
[3]
  Ki: 2520 nM
[4]
  Ki: 53 nM
[1]
  logKw: 0.27
[2]
  remaining at 0.5 h, 10 µM: 13%
[5]
  Ki: 1050 nM
[6]
  Ki: 94 nM

## COc1ccc(-c2ccccc2N2CCN(CCOCCC(=O)NCc3ccncc3)CC2)cc1
[1]
  logKw: 0.25
[2]
  remaining at 0.5 h, 10 µM: 25%

## O=C(CCOCCN1CCN(c2cccnc2-c2ccccc2)CC1)NCc1ccc(C(F)(F)F)cc1
D(2) dopamine receptor
  Ki: 2770 nM
[3]
  Ki: 2210 nM
[4]
  Ki: 44 nM
[1]
  logKw: 0.16
[2]
  remaining at 0.5 h, 10 µM: 1%
[5]
  Ki: 802 nM
[6]
  Ki: 471 nM

## N#Cc1ccc(CNC(=O)CCOCCN2CCN(c3ncccc3-c3ccc(F)cc3)CC2)cc1
[3]
  Ki: 1620 nM
[4]
  Ki: 54 nM
[1]
  logKw: 0.15
[2]
  remaining at 0.5 h, 10 µM: 1%
[5]
  Ki: 2630 nM
[6]
  Ki: 156 nM

## COc1ccc(-c2ccccc2N2CCN(CCCCCC(=O)NCc3ccncc3)CC2)cc1
[1]
  logKw: 0.39
[2]
  remaining at 0.5 h, 10 µM: 35%

## COc1ccc(-c2ccccc2N2CCN(CCCCCC(=O)NCc3ccc(OCCCN4CCOCC4)cc3)CC2)cc1
D(2) dopamine receptor
  Ki: 260 nM
[3]
  Ki: 1620 nM
[4]
  Ki: 18.5 nM
[1]
  logKw: 0.62
[2]
  remaining at 0.5 h, 10 µM: 3 to 3.3%
[5]
  Ki: 105 nM
[6]
  Ki: 53 nM

## N#Cc1ccc(CNC(=O)CCOCCN2CCN(c3cccnc3-c3ccc(F)cc3)CC2)cc1
D(2) dopamine receptor
  Ki: 1960 nM
[3]
  Ki: 2810 nM
[4]
  Ki: 108 nM
[1]
  logKw: -0.09
[2]
  remaining at 0.5 h, 10 µM: 9%
[5]
  Ki: 6630 nM
[6]
  Ki: 914 nM

## CN(C)Cc1ccc(CNC(=O)CCCCCN2CCN(c3ccccc3-c3ccccc3)CC2)cc1
D(2) dopamine receptor
  Ki: 75 nM
[3]
  Ki: 1510 nM
[4]
  Ki: 21 nM
[1]
  logKw: 0.68
[2]
  remaining at 0.5 h, 10 µM: 3 to 5%
[5]
  Ki: 74 nM
[6]
  Ki: 23 nM

## COc1ccc(-c2ccccc2N2CCN(CCCCCC(=O)NCc3ccccn3)CC2)cc1
[1]
  logKw: 0.47
[2]
  remaining at 0.5 h, 10 µM: 6%

## N#Cc1ccc(CNC(=O)CCOCCN2CCN(c3ccccc3-c3ccccc3)CC2)cc1
[3]
  Ki: 148 nM
[1]
  logKw: 0.41
[2]
  remaining at 0.5 h, 10 µM: 5%
[6]
  Ki: 9.3 nM

## COCOc1ccc(CNC(=O)CCCCCN2CCN(c3ccccc3-c3ccccc3)CC2)cc1
D(2) dopamine receptor
  Ki: 36 nM
[3]
  Ki: 413 nM
[4]
  Ki: 4.5 nM
[1]
  logKw: 0.44
[2]
  remaining at 0.5 h, 10 µM: 5.4%
[5]
  Ki: 86 nM
[6]
  Ki: 20 nM

## O=C(CCCCCN1CCN(c2ccccc2-c2ccccc2)CC1)NCc1ccc(OCCCN2CCOCC2)cc1
D(2) dopamine receptor
  Ki: 64 nM
[3]
  Ki: 1150 nM
[4]
  Ki: 9.5 nM
[1]
  logKw: 0.63
[2]
  remaining at 0.5 h, 10 µM: 3.3%
[5]
  Ki: 149 nM
[6]
  Ki: 12.3 nM

## COc1ccc(-c2ccccc2N2CCN(CCCCCC(=O)N[C@H](C)c3ccccc3)CC2)cc1
D(2) dopamine receptor
  Ki: 295 nM
[3]
  Ki: 721 nM
[4]
  Ki: 11.5 nM
[1]
  logKw: 0.71
[2]
  remaining at 0.5 h, 10 µM: 0.7 to 3%
[5]
  Ki: 134 nM
[6]
  Ki: 36 nM

## COc1ccc(-c2ccccc2N2CCN(CCCCCC(=O)NCc3cccnc3)CC2)cc1
[1]
  logKw: 0.38
[2]
  remaining at 0.5 h, 10 µM: 32%

## O=C(CCOCCN1CCN(c2ncccc2-c2ccccc2)CC1)NCc1ccc(C(F)(F)F)cc1
[3]
  Ki: 1040 nM
[4]
  Ki: 52 nM
[1]
  logKw: 0.48
[2]
  remaining at 0.5 h, 10 µM: 1%
[5]
  Ki: 365 nM
[6]
  Ki: 1220 nM

## COc1ccc(-c2ccccc2N2CCN(CCCCCC(=O)NCc3ccc(OCCO)cc3)CC2)cc1
D(2) dopamine receptor
  Ki: 419 nM
[3]
  Ki: 1340 nM
[4]
  Ki: 14.5 nM
[1]
  logKw: 0.39
[2]
  remaining at 0.5 h, 10 µM: 19%
[5]
  Ki: 152 nM
[6]
  Ki: 53 nM

## O=C(CCOCCN1CCN(c2ccccc2-c2ccccc2)CC1)NCc1ccc(C(F)(F)F)cc1
D(2) dopamine receptor
  Ki: 345 nM
[3]
  Ki: 830 nM
[1]
  logKw: 0.75
[2]
  remaining at 0.5 h, 10 µM: 3%
[6]
  Ki: 245 nM

## CS(=O)(=O)Oc1ccc(CNC(=O)CCCCCN2CCN(c3ccccc3-c3ccccc3)CC2)cc1
[2]
  remaining at 0.5 h, 10 µM: < 3%

## O=C(CCOCCN1CCN(c2cccnc2-c2ccc(F)cc2)CC1)NCc1ccc(C(F)(F)F)cc1
D(2) dopamine receptor
  Ki: 3460 nM
[3]
  Ki: 2630 nM
[4]
  Ki: 254 nM
[1]
  logKw: 0.14
[2]
  remaining at 0.5 h, 10 µM: 6%
[5]
  Ki: 6060 nM
[6]
  Ki: 263 nM

## C[C@H](NC(=O)CCCCCN1CCN(c2ccccc2-c2ccccc2)CC1)c1ccccc1
D(2) dopamine receptor
  Ki: 53 nM
[3]
  Ki: 480 nM
[4]
  Ki: 10 nM
[1]
  logKw: 0.75
[2]
  remaining at 0.5 h, 10 µM: 16%
[5]
  Ki: 66 nM
[6]
  Ki: 46.4 nM

## COc1ccc(-c2ccccc2N2CCN(CCOCCC(=O)NCc3ccccn3)CC2)cc1
[1]
  logKw: 0.32
[2]
  remaining at 0.5 h, 10 µM: 19%

## N#Cc1ccc(CNC(=O)CCOCCN2CCN(c3cccnc3-c3ccccc3)CC2)cc1
[3]
  Ki: 3440 nM
[4]
  Ki: 87 nM
[1]
  logKw: -0.14
[2]
  remaining at 0.5 h, 10 µM: 2%
[5]
  Ki: 3840 nM
[6]
  Ki: 310 nM

## O=C(CCCCCN1CCN(c2ccccc2-c2ccccc2)CC1)NCc1ccccc1
[1]
  logKw: 0.68
[2]
  remaining at 0.5 h, 10 µM: < 3%

## O=C(CCCCCN1CCN(c2ccccc2-c2ccccc2)CC1)NCc1ccc(OCCO)cc1
[4]
  Ki: 259 nM
[2]
  remaining at 0.5 h, 10 µM: 10%
[6]
  Ki: 4.5 nM

## C[C@@H](NC(=O)CCCCCN1CCN(c2ccccc2-c2ccccc2)CC1)c1ccccc1
D(2) dopamine receptor
  Ki: 116 nM
[3]
  Ki: 561 nM
[4]
  Ki: 10.5 nM
[1]
  logKw: 0.75
[2]
  remaining at 0.5 h, 10 µM: 9%
[5]
  Ki: 80 nM
[6]
  Ki: 36.6 nM

## N#Cc1ccc(CNC(=O)CCOCCN2CCN(c3ncccc3-c3ccccc3)CC2)cc1
[3]
  Ki: 1630 nM
[4]
  Ki: 76 nM
[1]
  logKw: 0.11
[2]
  remaining at 0.5 h, 10 µM: 1.6 to 3%
[5]
  Ki: 595 nM

## COc1ccc(-c2ccccc2N2CCN(CCCCCC(=O)N[C@@H](C)c3ccccc3)CC2)cc1
D(2) dopamine receptor
  Ki: 177 nM
[3]
  Ki: 652 nM
[4]
  Ki: 15.5 nM
[1]
  logKw: 0.71
[2]
  remaining at 0.5 h, 10 µM: 21%
[5]
  Ki: 103 nM
[6]
  Ki: 22.1 nM

## O=C(CCCCCN1CCN(c2ccccc2-c2ccccc2)CC1)NCc1ccc(OCCN2CCOCC2)cc1
D(2) dopamine receptor
  Ki: 136 nM
[3]
  Ki: 1720 nM
[4]
  Ki: 16 nM
[1]
  logKw: 0.59
[2]
  remaining at 0.5 h, 10 µM: 5%
[5]
  Ki: 160 nM
[6]
  Ki: 7.4 nM

## C[C@H]1CN(c2ccccc2-c2ccccc2)CCN1CCCCCC(=O)NCc1ccccc1
D(2) dopamine receptor
  Ki: 243 nM
[3]
  Ki: 395 nM
[4]
  Ki: 36.5 nM
[1]
  logKw: 0.59
[2]
  remaining at 0.5 h, 10 µM: 5%
[5]
  Ki: 202 nM
[6]
  Ki: 42.6 nM

## C[C@@H]1CN(c2ccccc2-c2ccccc2)CCN1CCCCCC(=O)NCc1ccccc1
D(2) dopamine receptor
  Ki: 178 nM
[3]
  Ki: 434 nM
[4]
  Ki: 14 nM
[1]
  logKw: 0.58
[2]
  remaining at 0.5 h, 10 µM: 3%
[5]
  Ki: 101 nM
[6]
  Ki: 11.6 nM

## COc1ccc(-c2ccccc2N2CCN(CCCCCC(=O)NCc3ccc(OCCN4CCOCC4)cc3)CC2)cc1
D(2) dopamine receptor
  Ki: 375 nM
[3]
  Ki: 1710 nM
[4]
  Ki: 25 nM
[1]
  logKw: 0.57
[2]
  remaining at 0.5 h, 10 µM: 15%
[5]
  Ki: 163 nM
[6]
  Ki: 26 nM

## COCOc1ccc(CNC(=O)CCCCCN2CCN(c3ccccc3-c3ccc(OC)cc3)CC2)cc1
D(2) dopamine receptor
  Ki: 321 nM
[3]
  Ki: 640 nM
[4]
  Ki: 6.5 nM
[1]
  logKw: 0.38
[2]
  remaining at 0.5 h, 10 µM: 8.3%
[5]
  Ki: 160 nM
[6]
  Ki: 5.9 nM
